Results taken from patent US9181266B2, “2-piperidin-1-yl-acetamide compounds for use as tankyrase inhibitors” (NOVARTIS AG, priority 2011, dated 2015).
Where “and” joins values, the source holds several entries; their conditions need not be identical. Equal entries are not always repeated. Where two headings read alike, the source gives them in different places.

How the values were obtained:
[1] = tested on: Axin2 protein in SW480 cells; test: Cellular ELISA assay of Axin2 protein stabilization; assay type: cell-based; conditions: Homo sapiens, 24 hrs, read-out: Axin AC50
Experimental: Cellular ELISA Assay to Determine Compound Effect on Stabilizing the Axin2 Protein Compound activity in stabilizing the Axin2 protein was measured by Sandwich Enzyme-Linked Immuosorbent (ELISA) assay in the colorectal cell line SW480. 30,000 SW480 cells were seeded per well in 96-well plate and incubated overnight prior to compound treatment. […] Cells were then washed with 100 μL of cold Phosphate Buffer Saline (PBS), and lysed in 125 μl of cold 1× lysis buffer (Cell Signaling Technology, 9803) supplemented with Protease inhibitor (Roche, 11836170) and Phosphatase inhibitors (Sigma, P2850, P5726). For the ELISA assay, anti Axin-2 capture antibody (Strategic Diagnostics) antibody was diluted to a concentration of 1 μg/ml (1:1000) in Carbonate Coating buffer, pH 9.2 (Sigma, C3041-50CAP). […], of the diluted anti Axin-2 capture antibody per well was then used to coat the 96-well ELISA plate (Thermo Electron Corp., MicroLite 1 flat bottom plate #7571) overnight at 4° C. […] After blocking, plates were then washed three times with 300 μl/well of wash solution. 100 μL of prepared SW480 cell lysate was then added to each well and incubated at room temperature for 2 hours while shaking gently. After washing, 100 μL of Biotinylated anti-Axin2 antibody (CST, 2151) was added to each well and incubated room temperature for 2 hours. 100 μL of Streptavidin-HRP (R&D systems, DY998) diluted 1:200 in 1% BSA/PBS was then added in each well and incubate for 30 mins at R/T in the dark.

Human PARP1 = Human PARP1 (Homo sapiens (Human), UniProt P09874); test: PARP1 autoparsylation assay (LC/MS detection of nicotinamide); assay type: biochemical; conditions: 20 nM enzyme, 250 μM β-NAD+, 60 min
Experimental: (§1) The autoparsylation activity of the TNKS 1/2 or PARP1/2 enzymes was measured by the liquid chromatography-mass spectrometry (LC/MS) detection of nicotinamide as readout. Compound activity in inhibiting the TNKS and PARP autoparsylation was evaluated by IC50 measurements.

[2] = tested on: Wnt ligand-induced signaling in HEK293 cells; test: Wnt-responsive Super-TOpFlash (STF) luciferase reporter gene assay; assay type: cell-based; conditions: Homo sapiens, Wnt3A condition medium
Experimental: Cellular Reporter Gene Assay to Determine Compound Inhibition of Wnt Signaling Activity
Compound activity in inhibiting Wnt ligand-induced signaling was measured using a Wnt-responsive Super-TOpFlash (STF) luciferase reporter gene assay in HEK293 cells. On day 1 of the assay, cells were plated at a density of 8000 cells per well of 384-well plate in 25 μl medium containing 5% fetal bovine serum (FBS). On the second day, […] condition medium (CM) produced from mouse L cells was added to the cells to induce Wnt signaling, followed by addition of 5 μL of compounds each well in 10-point serial dilution. On the third day, the luciferase activity was measured by the Bright-Glo™ Luciferase Assay System following manufacture's protocol (Promega, E2620). The Inhibition was calculated as: (Maximum Wnt-induced signaling−Sample)/(Maximum Wnt-induced signaling−Background)*100. “Maximum Wnt-induced signaling” is the STF signal level induced by 20% Wnt3A CM without compound; and “Background” is the STF signal level without the addition of Wnt3A CM or compound.

[3] = target: tankyrase 2 protein PARP domain, TNKS2P (Homo sapiens (Human), UniProt Q9H2K2); test: TNKS2 autoparsylation assay (LC/MS detection of nicotinamide); conditions: read-out: TNKS2 AP IC50, 20 nM enzyme, 250 μM β-NAD+, 60 min
Experimental: (§2) Biochemical Assay to Determine Compound Inhibition of TNKS Enzyme Activity
(§3) The autoparsylation activity of the TNKS 1/2 or PARP1/2 enzymes was measured by the liquid chromatography-mass spectrometry (LC/MS) detection of nicotinamide as readout. Compound activity in inhibiting the TNKS and PARP autoparsylation was evaluated by IC50 measurements. […] For the background control wells, 10 μL of the 5× quenching solution per well was added prior to the addition of β-NAD^+. The % Inhibition was calculated as: (Control−Sample)/(Control−Background)*100.

PARP2 = PARP2 (Mus musculus (Mouse), UniProt O88554); test: PARP2 autoparsylation assay (LC/MS detection of nicotinamide); assay type: biochemical; conditions: 20 nM enzyme, 250 μM β-NAD+, 60 min
Experimental: as §1

[4] = target: human tankyrase 1 PARP catalytic domain, TNKS1P (Homo sapiens (Human), UniProt O95271); test: TNKS1 autoparsylation assay (LC/MS detection of nicotinamide); conditions: read-out: TNKS1 AP IC50, 20 nM enzyme, 250 μM β-NAD+, 60 min
Experimental: as §2, §3

[5] = tested on: Non-small lung cancer ABC-1 cells; test: Cellular proliferation assay (CellTiter-Glo); assay type: cell-based; conditions: Homo sapiens, read-out: ABC-1 IC50
Experimental: Cellular Proliferation Assay to Determine Compound Inhibition of Cancer Cell Growth
Viable cells were measured after 3 days of compound treatment using the CellTiter-Glo assay (Promega, G7570). Assay was performed following the manufacture protocol.

[6] = 72 h, ABC-1 cells, 3 days of compound treatment

Chain of PARP2 (O88554 whole entry): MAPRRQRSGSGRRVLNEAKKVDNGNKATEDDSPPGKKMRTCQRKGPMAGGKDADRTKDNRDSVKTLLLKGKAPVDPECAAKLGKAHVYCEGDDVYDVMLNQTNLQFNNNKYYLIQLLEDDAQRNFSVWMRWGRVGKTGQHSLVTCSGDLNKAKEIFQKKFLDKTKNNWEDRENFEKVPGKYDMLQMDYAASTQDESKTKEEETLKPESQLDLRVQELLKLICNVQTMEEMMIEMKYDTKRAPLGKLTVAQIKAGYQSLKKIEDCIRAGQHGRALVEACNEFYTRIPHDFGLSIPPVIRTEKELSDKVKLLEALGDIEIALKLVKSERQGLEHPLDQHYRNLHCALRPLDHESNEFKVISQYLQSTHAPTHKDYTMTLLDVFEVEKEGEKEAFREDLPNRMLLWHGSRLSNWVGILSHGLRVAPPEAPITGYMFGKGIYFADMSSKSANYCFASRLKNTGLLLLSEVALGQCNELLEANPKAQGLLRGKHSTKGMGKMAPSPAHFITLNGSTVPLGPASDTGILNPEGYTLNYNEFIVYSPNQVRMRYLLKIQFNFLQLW
Chain of human tankyrase 1 PARP catalytic domain, TNKS1P (O95271 1112-1317): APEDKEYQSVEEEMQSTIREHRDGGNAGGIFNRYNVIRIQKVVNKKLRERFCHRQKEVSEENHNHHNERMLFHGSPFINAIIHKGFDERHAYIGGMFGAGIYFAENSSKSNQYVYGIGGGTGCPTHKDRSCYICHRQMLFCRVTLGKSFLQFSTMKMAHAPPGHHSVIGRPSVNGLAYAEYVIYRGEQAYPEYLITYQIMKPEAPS
Chain of Human PARP1 (P09874 whole entry): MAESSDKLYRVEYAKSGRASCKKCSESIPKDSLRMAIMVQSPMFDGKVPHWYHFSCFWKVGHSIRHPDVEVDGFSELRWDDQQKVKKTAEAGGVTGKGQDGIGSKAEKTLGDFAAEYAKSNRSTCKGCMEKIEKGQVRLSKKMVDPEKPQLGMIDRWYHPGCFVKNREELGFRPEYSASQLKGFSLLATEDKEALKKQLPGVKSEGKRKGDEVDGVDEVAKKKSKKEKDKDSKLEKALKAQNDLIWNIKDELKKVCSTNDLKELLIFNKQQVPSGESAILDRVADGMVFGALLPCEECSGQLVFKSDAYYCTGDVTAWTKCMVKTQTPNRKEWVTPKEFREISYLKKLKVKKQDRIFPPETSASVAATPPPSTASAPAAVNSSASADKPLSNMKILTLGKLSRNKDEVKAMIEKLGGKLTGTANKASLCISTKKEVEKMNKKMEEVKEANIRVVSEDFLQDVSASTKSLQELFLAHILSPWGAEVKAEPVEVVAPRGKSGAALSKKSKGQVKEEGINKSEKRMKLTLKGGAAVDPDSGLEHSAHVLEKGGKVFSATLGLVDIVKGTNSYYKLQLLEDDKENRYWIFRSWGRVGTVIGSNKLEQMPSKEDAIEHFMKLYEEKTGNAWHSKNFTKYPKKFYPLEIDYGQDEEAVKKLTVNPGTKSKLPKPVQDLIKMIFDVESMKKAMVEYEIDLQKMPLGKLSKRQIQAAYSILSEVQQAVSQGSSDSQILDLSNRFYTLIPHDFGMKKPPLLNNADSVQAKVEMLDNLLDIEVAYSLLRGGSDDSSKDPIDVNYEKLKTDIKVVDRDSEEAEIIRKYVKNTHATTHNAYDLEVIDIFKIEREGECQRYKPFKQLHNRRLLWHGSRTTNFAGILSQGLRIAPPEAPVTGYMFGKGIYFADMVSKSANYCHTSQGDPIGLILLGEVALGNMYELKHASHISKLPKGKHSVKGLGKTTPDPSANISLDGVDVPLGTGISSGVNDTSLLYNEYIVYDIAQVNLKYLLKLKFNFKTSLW
Chain of tankyrase 2 protein PARP domain, TNKS2P (Q9H2K2 959-1164): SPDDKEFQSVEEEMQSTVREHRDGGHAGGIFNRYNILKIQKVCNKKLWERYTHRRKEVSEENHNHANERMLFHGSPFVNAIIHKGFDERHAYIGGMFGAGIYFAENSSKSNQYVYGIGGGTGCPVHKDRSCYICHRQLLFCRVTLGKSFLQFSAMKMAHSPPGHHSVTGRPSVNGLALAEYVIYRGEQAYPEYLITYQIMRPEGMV

SMILES	AC50 [1]	IC50 (Human PARP1)	IC50 [2]	IC50 [3]	IC50 (PARP2)	IC50 [4]	IC50 ([5]; ABC-1, 72 h)	IC50 [5, 6]
C[C@H](c1ccccc1)N(Cc1nc2c(c(=O)[nH]1)COCC2)C(=O)CN1CCC(C(=O)c2ccc(F)cc2)CC1 [Example 4, 2-[4-(4-Fluoro-benzoyl)-piperidin-1-yl]-N-(4-oxo-3,5,7,8-tetrahydro-4H-pyrano[4,3-c]pyrimidin-2-ylmethyl)-N—((R)-1-phenyl-ethyl)-acetamide]	363 ± 37 nM	> 19000 nM	59 ± 17 nM	16 ± 1 nM	> 19000 nM	63 ± 5 nM	–	–
COc1ccc(C(=O)C2CCN(CC(=O)N(Cc3nc4c(c(=O)[nH]3)CCCC4)CC3CC3)CC2)cc1 [Example 8, N-(Cyclopropylmethyl)-2-(4-(4-methoxybenzoyl)piperidin-1-yl)-N-((4-oxo-3,4,5,6,7,8-hexahydroquinazolin-2-yl)methyl)acetamide]	13 ± 3 nM	–	3 ± 1 nM	–	9140 ± 210 nM	–	22 nM	–
COc1ccc(C(=O)C2CCN(CC(=O)NCc3nc4c(c(=O)[nH]3)CCCC4)CC2)cc1 [Example 9, 2-(4-(4-Methoxybenzoyl)piperidin-1-yl)-N-((4-oxo-3,4,5,6,7,8-hexahydroquinazolin-2-yl)methyl)acetamide]	9 ± 2 nM	–	3 ± 3 nM	–	243 ± 66 nM	–	41 nM	–
O=C(c1ccc(F)cc1)C1CCN(CC(=O)N(Cc2cccc(F)c2)Cc2nc3c(c(=O)[nH]2)COCC3)CC1 [Example 19, 2-(4-(4-Fluorobenzoyl)piperidin-1-yl)-N-(3-fluorobenzyl)-N-((4-oxo-4,5,7,8-tetrahydro-3H-pyrano[4,3-d]pyrimidin-2-yl)methyl)acetamide]	779 ± 83 nM	> 19000 nM	92 ± 77 nM	21 ± 1 nM	> 19000 nM	84 ± 7 nM	–	–
C[C@@H](c1ccccc1)N(Cc1nc2c(c(=O)[nH]1)COCC2)C(=O)CN1CCC(C(=O)c2ccc(F)cc2)CC1 [Example 23, 2-[4-(4-Fluoro-benzoyl)-piperidin-1-yl]-N-(4-oxo-3,5,7,8-tetrahydro-4H-pyrano[4,3-d]pyrimidin-2-ylmethyl)-N—((S)-1-phenyl-ethyl)-acetamide]	–	> 19000 nM	189 ± 76 nM	50 ± 1 nM	> 19000 nM	209 ± 3 nM	–	–
CC[C@H](C)CN(Cc1nc2c(c(=O)[nH]1)COCC2)C(=O)CN1CCC(C(=O)c2ccc(F)cc2)CC1 [Example 25, 2-[4-(4-Fluoro-benzoyl)-piperidin-1-yl]-N—((S)-2-methyl-butyl)-N-(4-oxo-3,5,7,8-tetrahydro-4H-pyrano[4,3-d]pyrimidin-2-ylmethyl)-acetamide]	179 ± 26 nM	> 19000 nM	30 ± 9 nM	13 ± 1 nM	> 19000 nM	37 ± 4 nM	–	–
C#CCN(Cc1nc2c(c(=O)[nH]1)COCC2)C(=O)CN1CCC(C(=O)c2ccc(F)cc2)CC1 [Example 27, 2-(4-(4-Fluorobenzoyl)piperidin-1-yl)-N-((4-oxo-4,5,7,8-tetrahydro-3H-pyrano[4,3-d]pyrimidin-2-yl)methyl)-N-(prop-2-ynyl)acetamide]	3640 ± 660 nM	> 19000 nM	53 ± 45 nM	14 ± 1 nM	> 19000 nM	43 ± 1 nM	–	–
O=C(c1ccc(F)cc1)C1CCN(CC(=O)N(Cc2nc3c(c(=O)[nH]2)COCC3)C[C@@H]2CCCO2)CC1 [Example 28, (S)-2-(4-(4-Fluorobenzoyl)piperidin-1-yl)-N-((4-oxo-4,5,7,8-tetrahydro-3H-pyrano[4,3-d]pyrimidin-2-yl)methyl)-N-((tetrahydrofuran-2-yl)methyl)acetamide]	101 ± 19 nM	> 19000 nM	15 ± 4 nM	10 ± 1 nM	> 19000 nM	24 ± 1 nM	–	–
N#CCN(Cc1nc2c(c(=O)[nH]1)COCC2)C(=O)CN1CCC(C(=O)c2ccc(F)cc2)CC1 [Example 43, N-Cyanomethyl-2-[4-(4-fluoro-benzoyl)-piperidin-1-yl]-N-(4-oxo-3,5,7,8-tetrahydro-4H-pyrano[4,3-d]pyrimidin-2-ylmethyl)-acetamide]	–	> 19000 nM and 42900 nM	362 nM	–	–	> 19000 nM	–	–
O=C(CN1CCC(c2noc3cc(F)ccc23)CC1)NCc1nc2c(c(=O)[nH]1)COCC2 [Example 51, 2-(4-(6-Fluorobenzo[d]isoxazol-3-yl)piperidin-1-yl)-N-((4-oxo-4,5,7,8-tetrahydro-3H-pyrano[4,3-d]pyrimidin-2-yl)methyl)acetamide]	–	7630 ± 320 nM	–	43 ± 2 nM	3090 ± 390 nM	207 ± 17 nM	–	–
O=C(CN1CCC(n2c(=O)[nH]c3ccccc32)CC1)NCc1nc2c(c(=O)[nH]1)COCC2 [Example 82, 2-(4-(2-Oxo-2,3-dihydro-1H-benzo[d]imidazol-1-yl)piperidin-1-yl)-N-((4-oxo-4,5,7,8-tetrahydro-3H-pyrano[4,3-d]pyrimidin-2-yl)methyl)acetamide]	–	32400 ± 4600 nM	787 ± 23 nM	39 ± 3 nM	2900 ± 900 nM	222 ± 2 nM	–	–
O=C(CN1CCC(C(=O)c2ccc3c(c2)OCO3)CC1)NCc1nc2c(c(=O)[nH]1)COCC2 [Example 92, 2-[4-(Benzo[1,3]dioxole-5-carbonyl)-piperidin-1-yl]-N-(4-oxo-3,5,7,8-tetrahydro-4H-pyrano[4,3-c]pyrimidin-2-ylmethyl)-acetamide]	154 ± 25 nM	–	9.1 ± 1.2 nM	43 nM	–	129 ± 1 nM	–	346 nM
COc1ccc(C(=O)C2CCN(CC(=O)NCc3nc4c(c(=O)[nH]3)COCC4)CC2)cc1Cl [Example 94, 2-[4-(3-Chloro-4-methoxy-benzoyl)-piperidin-1-yl]-N-(4-oxo-3,5,7,8-tetrahydro-4H-pyrano[4,3-d]pyrimidin-2-ylmethyl)-acetamide]	11 ± 2 nM	–	2.4 ± 0.3 nM	10.5 ± 0.7 nM	–	29 ± 3 nM	–	16 nM
CCOc1ccc(C(=O)C2CCN(CC(=O)NCc3nc4c(c(=O)[nH]3)COCC4)CC2)cc1F [Example 95, 2-[4-(4-Ethoxy-3-fluoro-benzoyl)-piperidin-1-yl]-N-(4-oxo-3,5,7,8-tetrahydro-4H-pyrano[4,3-c]pyrimidin-2-ylmethyl)-acetamide]	26 ± 7 nM	–	6.6 ± 0.7 nM	16 ± 5 nM	–	38 ± 3 nM	–	32 ± 5 nM
COc1ccc(C(=O)C2CCN(CC(=O)NCc3cc4c(c(=O)o3)COCC4)CC2)cc1 [Example 96, 2-[4-(4-methoxy-benzoyl)-piperidin-1-yl]-N-(1-oxo-5,8-dihydro-1H,6H-pyrano[3,4-c]pyran-3-ylmethyl)-acetamide]	24 ± 8 nM	–	13 ± 3 nM	133 ± 31 nM	–	328 ± 1 nM	–	65 ± 23 nM
COc1ccc(C(=O)C2CCN(CC(=O)NCc3cc4c(c(=O)[nH]3)COCC4)CC2)cc1 [Example 97, 2-[4-(4-Methoxy-benzoyl)-piperidin-1-yl]-N-(8-oxo-3,4,7,8-tetrahydro-1H-pyrano[3,4-c]pyridin-6-ylmethyl)-acetamide]	266 ± 58 nM	7500 ± 400 nM	–	27 ± 1 nM	1150 ± 9 nM	100 ± 10 nM	–	–
CC(c1nc2c(c(=O)[nH]1)COCC2)N(C)C(=O)CN1CCC(C(=O)c2ccc(F)cc2)CC1 (stereo not shown) [Example 98, 2-(4-(4-Fluorobenzoyl)piperidin-1-yl)-N-methyl-N-(1-(4-oxo-4,5,7,8-tetrahydro-3H-pyrano[4,3-d]pyrimidin-2-yl)ethyl)acetamide]	72 ± 15 nM	–	17 ± 8 nM	723 ± 10 nM	–	4100 ± 500 nM	–	258 nM
